Measurements as given in publication PMC8578629, “Photoactivated cell-killing amino-based flavylium compounds” (Scientific Reports, 2021).

Tests used:
[1] = MTT cytotoxicity assay, keratinocytes; assay type: cell-based; details: human, HaCaT cells (keratinocytes), dark
Method: (§1) The cytotoxicity of amino-based flavylium compounds to HFF-1 (ATCC Number: SCRC-1041) and HaCaT cells was evaluated using the standard MTT assay. Briefly, cells were seeded at a density of 8 × 10^5 and 4 × 10^4 cells/mL, respectively, in 96-well plate and incubated at 37 °C in a 5% CO2 atmosphere. Cells were allowed to grow for 24 h or until reaching monolayer confluency, and serially diluted compound solutions (6.3–100 µM) were added to the plate wells. The stock solutions of each compound were prepared at 200 mM in DMSO, the maximum % of DMSO in the cells was 0.05%. Then, cells were incubated for 48 h at 37 °C, after which the plate wells were washed once with phosphate buffered saline (PBS, Sigma-Aldrich), followed by addition of a 0.45 mg/mL MTT solution to each well. Crystals were allowed to form for 1.5 h. The reaction was stopped by rejecting the medium followed by the addition of 100 µL of DMSO (Sigma-Aldrich). The absorbance was read at 570 nm in FlexStation 3 Multi-Mode Microplate Reader (Molecular Devices, California, USA).

[2] = Fluorescence quantum yield by the absolute method (integrating sphere); assay type: physicochemical; details: in DMSO
Method: Based on the absorbance maxima of the different compounds (Fig. S2), the measurement of the quantum yield (QY) of the synthesized flavylium derivatives was performed using a calibrated Quantaurus-QY stand-alone integrating sphere setup C11347-11 (Hamamatsu Photonics, Hamamatsu, Japan) equipped with an integration sphere, a monochromator, a spectrograph, a 150 W xenon light source and a silicon charge coupled device. Each compound was dissolved in DMSO and diluted to ensure an absorbance of 0.1 from the λmax of excitation forward. Each compound was then irradiated at the corresponding wavelength and the absolute quantum yield determined. The fluorescence spectra was also recorded (Fig. S3). For each compound, four independent experiments were performed.

[3] = MTT cytotoxicity assay, fibroblasts; assay type: cell-based; details: human, HFF-1 cells (fibroblasts), HFF-1, proliferation condition, dark
Method: as §1

HaCaT cells [4] = assay: Reactive oxygen species production (DCF-DA); assay type: cell-based, human; details: 25 μM, 6.6 J cm^−2, versus control cells
Method: Cells reactive oxygen species (ROS) production was evaluated following the standard method. Briefly, cells were seed at a density of 4 × 10^4 cells/mL onto 96 well plates and after 24 h the compounds were added at 25 μM (non-toxic concentration) and the same previous procedure for the photoactivation assays was followed. After that, cells were washed twice in Hank’s Buffered Saline Solution (HBSS) and incubated with 100 μL of 50 μM 2′,7′-dichlorodihydrofluorescein diacetate (DCF‐DA) for 30 min in the same previous conditions. For positive control, cells were treated with 100 μM H2O2 for 30 min prior to the addition of DCF-DA. Cells were then washed twice with HBSS and incubated with fresh DMEM medium for 24 h. After this period, the fluorescence intensity at […] (ex/em) was determined in a FlexStation 3 Multi-Mode Microplate Reader.

[5] = Oxygen singlet production by Singlet Oxygen Sensor Green assay; details: for ^1O2 production: compound 25 μM, after white light irradiation 79.2 J cm^−2
Method: The production of singlet oxygen by the different amino-based compounds in solution was determined as follows: a stock solution of Singlet Oxygen Sensor Green was prepared at 5 mM in methanol (MeOH). Working solutions of the probe were prepared at 2 mM in 100 mM pH 7.5 Tris buffer and in 100 mM pH 7.5 Tris buffer with 10 mM of Sodium Azide. The compounds were then prepared at a stock concentration of 500 μM and the working solutions were prepared in 100 mM pH 7.5 Tris buffer and in 100 mM pH 7.5 Tris buffer with 10 mM of Sodium Azide. 1 μL of Singlet Oxygen Sensor Green working solutions and 100 μL of compounds solution were mixed to a final volume of 1000 μL (in 100 mM pH 7.5 Tris buffer or in 100 mM pH 7.5 Tris buffer with 10 mM of Sodium Azide). 100 μL of each solution was then added to a 96-well black plate and 100 μL of Deuterium Oxide was added for a final concentration of 1 μM Singlet Oxygen Sensor Green and 25 μM for the different amino-based compounds. The fluorescence was then registered in a spectrofluorometer using excitation/emission of 488/525 nm. After this procedure, the wells were irradiated with a white light source with a total of 79.2 J cm^−2, corresponding to a total irradiation time of 1 h (6 pulses of 10 min) and then, the fluorescence determined using the same excitation/emission pair. As a positive control, Methylene Blue was used at a final concentration of 10 μM. The oxygen singlet production methodology was performed in a dark room.

HaCaT cells [6] = assay: Cellular photoactivation assay (white light or dark, Alamar Blue); assay type: cell-based, human
Method: A white light LED homemade device prototype has 96 LEDs appropriately arranged on a plate of 13 cm length × 8 cm width, with a distance from the microplate surface of 8 cm. The prototype has an irradiance of 21 W m^−2 and a wavelength range of 408–707 nm (Fig. S4).
For the cellular photoactivation assays, the white light source of 21 W m^−2 was used. Briefly, cells were seed at a density of 4 × 10^4 cells/mL onto 96 –well plates and after 24 h the compounds were added to the plates in different concentrations (6.25–100 μM) and incubated for a period of 4 h at 37 °C in an atmosphere of 5% CO2 and in the presence of DMEM with 2% FBS. After this period, the medium with the compounds was removed and fresh medium (DMEM with 2% FBS without phenol red (DMEM_2% FBS_w/o_PR) was added to cells. Following this procedure, cells were submitted to light irradiation, the selected light source at a height of 8 cm, in a chamber designed to ensure the same light quantity for each well during the treatment. Cells were irradiated for 10 min at an intensity of 50%, at room temperature (making a total energy exposition of 6.6 J cm^−2). The dark treatment was prepared by placing the plates for 10 min in a dark box at room temperature. After this, the 96 well plates were placed in an incubator at 37 °C in an atmosphere of 5% CO2 for 24 h. Then, to determine cell survival the Alamar Blue assay was performed as follows: after the 24 h, 20 μL of a solution of Resazurin (0.15 mg mL^−1 in PBS filtered in 0.22 μm filters) were added to each well (making a total volume of 120 μL per well), and the plates were incubated between 4–6 h (until the development of visible color change from violet to pink). The fluorescence intensity of each well was then determined at 560/590 nm (ex/em) (FlexStation 3 Multi-Mode Microplate Reader).

[7] = Molar absorption coefficient (ɛ) at 630 nm; assay type: physicochemical
Method: The molar extinction coefficient or molar absorption (ɛ), of all synthesized pigments was determined in three different solvents (ethanol, methanol and DMSO). For each pigment, in each solvent, a range of concentrations was prepared and then the spectrum of each solution was read. Finally, the respective absorbances (collected at 630 nm) were represented as a function of concentration and the ɛ value was taken from the slope value of the equation curve.

SMILES | IC50 at 48 h ([1]; monolayer confluence) [µM] | IC50 at 48 h ([1]; proliferation) [µM] | Quantum yield of fluorescence (Φf), mean ± SD [2] | IC50 at 48 h [3] [µM] | ROS production upon white light irradiation (in words) (HaCaT cells [4]) | ^1O2 production [5] | Reduction of cell survival upon light irradiation (HaCaT cells [6]; applied concentration 6.25 and 12.5 μΜ) | Cell survival (HaCaT cells [6]; either in the presence or absence of light, highest concentration tested) [%] | Molar absorption coefficient ɛ at 630 nm ([7]; DMSO) | Molar absorption coefficient ɛ at 630 nm ([7]; Ethanol) | Molar absorption coefficient ɛ at 630 nm ([7]; Methanol) | Dark cytotoxicity to HaCaT cells (in words) (HaCaT cells [6]; 4 h incubation, 6.25–100 μM applied, dark) | Photoactivation, dark versus white light (in words) (HaCaT cells [6]; 4 h incubation, 6.25–100 μM applied, white light 6.6 J cm^−2) | ^1O2 production yield, times higher (positive control) ([5]; 10 μM, same amount of light irradiation)
CN(C)c1ccc(-c2ccc3c(O)cccc3[o+]2)cc1 [5OH4′NMe2, 5-hydroxy-4′-(dimethylamino)-benzopyrylium] | 47.3 ± 0.3 | 14.9 ± 0.1 | undetectable | 47.25 ± 0.21 | significantly increased | non-significant enhancement | less than 20% | 40 |  |  |  |  |  | 
CN(C)c1ccc(/C=C/c2ccc3c(O)cc(O)cc3[o+]2)cc1 [5,7OHst4′NMe2, 5,7-dihydroxy-2-(4′-dimethylaminostyryl)-benzopyrylium] |  |  | undetectable |  | did not modulate the production of ROS | non-significant enhancement |  |  | 15,224 M^−1 cm^−1 | 16,422 M^−1 cm^−1 | 15,224 M^−1 cm^−1 | did not present significant effects | not photoactivated | 
CN(C)c1ccc2nc3ccc(=[N+](C)C)cc-3sc2c1 [methylene blue, Methylene Blue, reference compound] |  |  |  |  |  |  |  |  |  |  |  |  |  | about 5 fold
